# From ChEMBL document CHEMBL1201862, “PubChem BioAssay data set” (2004)
#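 Each compound was tested at five concentrations against cells in 96-well plates for 48 hours. GI50 = concentration required for 50% inhibition of growth.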 Activity calls are given as the source filed them. No stated cut-off is given here; in the data, active = GI50 up to about 1.1 µM and inactive = higher.
# Assays:
# Assay in all cases: DTP human tumour cell line panel, 48 h
# [1] = system: EKVX
# [2] = system: SK-MEL-5
# [3] = system: 786-0
# [4] = system: DMS-114
# [5] = system: KM-20L2
# [6] = system: U-251
# [7] = system: M14
# [8] = system: A549
# [9] = system: XF498
# [10] = system: OVCAR-3
# [11] = system: M19-MEL
# [12] = system: SK-OV-3
# [13] = system: ACHN
# [14] = system: SF-539
# [15] = system: SK-MEL-28
# [16] = system: HL-60
# [17] = system: IGROV-1
# [18] = system: SR
# [19] = system: HCT-15
SMILES,GI50 [1],GI50 [2],GI50 [3],GI50 [4],GI50 [5],GI50 [6],GI50 [7],GI50 [8],GI50 [9],GI50 [10],GI50 [11],GI50 [12],GI50 [13],GI50 [14],GI50 [15],GI50 [16],GI50 [17],GI50 [18],GI50 [19] [µM]
OCC1CC2CC1C1(C2)OCCO1 (configuration not stated),> 100 µM (inactive),> 100 µM (inactive),> 100 µM (inactive),> 100 µM (inactive),> 100 µM (inactive),> 100 µM (inactive),> 100 µM (inactive),> 100 µM (inactive),> 100 µM (inactive),> 100 µM (inactive),> 100 µM (inactive),> 100 µM (inactive),> 100 µM (inactive),> 100 µM (inactive),> 100 µM (inactive),> 100 µM (inactive),> 100 µM (inactive),> 100 µM (inactive),
O=Cc1[nH]c2ccccc2c1Br,35.9 µM (inactive),16.5 µM (inactive),28 µM (inactive),18.5 µM (inactive),22.2 µM (inactive),21.6 µM (inactive),19.3 µM (inactive),> 100 µM (inactive),30.1 µM (inactive),21.8 µM (inactive),22.1 µM (inactive),20.8 µM (inactive),26 µM (inactive),15.3 µM (inactive),25.1 µM (inactive),13.8 µM (inactive),26.7 µM (inactive),21.7 µM (inactive),
Cc1c(OCCCOc2ccc3c(=O)cc(-c4ccccc4)oc3c2C)ccc2c(=O)cc(-c3ccccc3)oc12,> 100 µM (inactive),> 100 µM (inactive),> 100 µM (inactive),> 100 µM (inactive),> 100 µM (inactive),> 100 µM (inactive),> 100 µM (inactive),> 100 µM (inactive),> 100 µM (inactive),> 100 µM (inactive),> 100 µM (inactive),> 100 µM (inactive),,> 100 µM (inactive),> 100 µM (inactive),41.4 µM (inactive),> 100 µM (inactive),44.2 µM (inactive),> 100
COc1nc2c(OC)cccc2c(OC)c1C=O,> 100 µM (inactive),> 100 µM (inactive),> 100 µM (inactive),> 100 µM (inactive),> 100 µM (inactive),> 100 µM (inactive),> 100 µM (inactive),> 100 µM (inactive),18.8 µM (inactive),> 100 µM (inactive),> 100 µM (inactive),> 100 µM (inactive),> 100 µM (inactive),> 100 µM (inactive),> 100 µM (inactive),> 100 µM (inactive),> 100 µM (inactive),,> 100
CC(C)(C)CC(C)(C)c1cc2c(O)c(c1)Cc1cc(C(C)(C)CC(C)(C)C)cc(c1O)Cc1cc(C(C)(C)CC(C)(C)C)cc(c1O)Cc1cc(C(C)(C)CC(C)(C)C)cc(c1O)Cc1cc(C(C)(C)CC(C)(C)C)cc(c1O)C2,> 100 µM (inactive),> 100 µM (inactive),> 100 µM (inactive),> 100 µM (inactive),> 100 µM (inactive),> 100 µM (inactive),> 100 µM (inactive),> 100 µM (inactive),> 100 µM (inactive),> 100 µM (inactive),> 100 µM (inactive),,> 100 µM (inactive),> 100 µM (inactive),> 100 µM (inactive),> 100 µM (inactive),> 100 µM (inactive),,> 100
NC(=O)C(=Cc1ccc(C(O)P(=O)(O)O)cc1)C(N)=O (configuration not stated),> 100 µM (inactive),> 100 µM (inactive),> 100 µM (inactive),> 100 µM (inactive),> 100 µM (inactive),> 100 µM (inactive),> 100 µM (inactive),> 100 µM (inactive),> 100 µM (inactive),> 100 µM (inactive),> 100 µM (inactive),> 100 µM (inactive),> 100 µM (inactive),> 100 µM (inactive),> 100 µM (inactive),,> 100 µM (inactive),,> 100
COC(=O)C12C3C=CC(O3)C1C1C=CC2O1 (configuration not stated),> 100 µM (inactive),> 100 µM (inactive),> 100 µM (inactive),,> 100 µM (inactive),> 100 µM (inactive),> 100 µM (inactive),> 100 µM (inactive),> 100 µM (inactive),> 100 µM (inactive),> 100 µM (inactive),> 100 µM (inactive),> 100 µM (inactive),> 100 µM (inactive),> 100 µM (inactive),> 100 µM (inactive),> 100 µM (inactive),> 100 µM (inactive),> 100
COC1CC(O[C@H]2CC[C@@]3(C)C(=CCC4(O)C3CCC35C(=O)OC6(C)O[C@@]43CCC65)C2)OC(C)C1O (some centres not stated),> 100 µM (inactive),> 100 µM (inactive),> 100 µM (inactive),> 100 µM (inactive),> 100 µM (inactive),> 100 µM (inactive),> 100 µM (inactive),> 100 µM (inactive),> 100 µM (inactive),,> 100 µM (inactive),> 100 µM (inactive),> 100 µM (inactive),> 100 µM (inactive),> 100 µM (inactive),> 100 µM (inactive),> 100 µM (inactive),> 100 µM (inactive),> 100
CC(C)c1ccc(/C=C/c2cc(C(=O)NNC(=O)NC3CCCCC3)nc(S)n2)cc1,> 100 µM (inactive),> 100 µM (inactive),> 100 µM (inactive),> 100 µM (inactive),> 100 µM (inactive),> 100 µM (inactive),> 100 µM (inactive),> 100 µM (inactive),> 100 µM (inactive),> 100 µM (inactive),> 100 µM (inactive),> 100 µM (inactive),> 100 µM (inactive),> 100 µM (inactive),> 100 µM (inactive),,> 100 µM (inactive),,> 100
COc1ccc2c3c([nH]c(=O)c2c1C(=O)O)-c1ccccc1CC3,49.7 µM (inactive),> 100 µM (inactive),> 100 µM (inactive),> 100 µM (inactive),> 100 µM (inactive),> 100 µM (inactive),> 100 µM (inactive),> 100 µM (inactive),> 100 µM (inactive),> 100 µM (inactive),,> 100 µM (inactive),> 100 µM (inactive),> 100 µM (inactive),> 100 µM (inactive),> 100 µM (inactive),> 100 µM (inactive),> 100 µM (inactive),> 100
CCN(CC)c1ccc(/N=N/c2ccc(-c3nc4cccnc4o3)cc2)cc1,> 100 µM (inactive),> 100 µM (inactive),> 100 µM (inactive),> 100 µM (inactive),> 100 µM (inactive),> 100 µM (inactive),> 100 µM (inactive),> 100 µM (inactive),> 100 µM (inactive),> 100 µM (inactive),> 100 µM (inactive),,> 100 µM (inactive),> 100 µM (inactive),> 100 µM (inactive),> 100 µM (inactive),> 100 µM (inactive),,> 100
Nc1c(Br)c(=O)[nH]c(=O)n1COCCO,,> 100 µM (inactive),> 100 µM (inactive),> 100 µM (inactive),,> 100 µM (inactive),> 100 µM (inactive),> 100 µM (inactive),> 100 µM (inactive),> 100 µM (inactive),> 100 µM (inactive),,> 100 µM (inactive),> 100 µM (inactive),> 100 µM (inactive),> 100 µM (inactive),> 100 µM (inactive),> 100 µM (inactive),
C[C@@H](C1CCC2C3C(=CC(=O)[C@@]21C)[C@H](C)[C@]1(CCC(=O)O1)C1OC31)[C@H]1C[C@]2(C)O[C@@](C)(O1)OC2(C)C (some centres not stated),> 100 µM (inactive),> 100 µM (inactive),> 100 µM (inactive),> 100 µM (inactive),> 100 µM (inactive),> 100 µM (inactive),> 100 µM (inactive),> 100 µM (inactive),> 100 µM (inactive),,> 100 µM (inactive),> 100 µM (inactive),> 100 µM (inactive),> 100 µM (inactive),> 100 µM (inactive),> 100 µM (inactive),> 100 µM (inactive),,> 100
CCC1(Br)C(=O)NC(=O)N(C2CC(O)C(CO)O2)C1N=[N+]=[N-] (configuration not stated),> 100 µM (inactive),> 100 µM (inactive),> 100 µM (inactive),72.1 µM (inactive),> 100 µM (inactive),> 100 µM (inactive),> 100 µM (inactive),> 100 µM (inactive),> 100 µM (inactive),> 100 µM (inactive),> 100 µM (inactive),> 100 µM (inactive),> 100 µM (inactive),> 100 µM (inactive),> 100 µM (inactive),> 100 µM (inactive),> 100 µM (inactive),,
Cc1cc(NS(=O)(=O)c2ccc(Nc3c4ccccc4nc4c(C(=O)Nc5ccc(S(=O)(=O)N=C(N)N)cc5)cccc34)cc2)no1,> 100 µM (inactive),> 100 µM (inactive),> 100 µM (inactive),> 100 µM (inactive),> 100 µM (inactive),> 100 µM (inactive),> 100 µM (inactive),> 100 µM (inactive),> 100 µM (inactive),> 100 µM (inactive),> 100 µM (inactive),> 100 µM (inactive),> 100 µM (inactive),> 100 µM (inactive),> 100 µM (inactive),,> 100 µM (inactive),,> 100
CC(CC(=O)Nc1ccc(NC(=O)CC(C)/N=N\C(N)=S)cc1)/N=N\C(N)=S (configuration not stated),> 100 µM (inactive),> 100 µM (inactive),> 100 µM (inactive),53.7 µM (inactive),> 100 µM (inactive),,> 100 µM (inactive),> 100 µM (inactive),> 100 µM (inactive),> 100 µM (inactive),> 100 µM (inactive),,> 100 µM (inactive),> 100 µM (inactive),> 100 µM (inactive),> 100 µM (inactive),> 100 µM (inactive),48.9 µM (inactive),85.9
